Test results published in ChEMBL document CHEMBL3352346, “Optimization of sphingosine-1-phosphate-1 receptor agonists: effects of acidic, basic, and zwitterionic chemotypes on pharmacokinetic and pharmacodynamic profiles” (J Med Chem, 2014).
Each block holds one compound with its values, some of them ahead of it.

How the values were obtained:
[1] = target: Sphingosine 1-phosphate receptor 1 (Homo sapiens, UniProt P21453); experiment: Agonist activity at human S1P1R expressed in RH7777 membranes assessed as [35S]GTPgammaS binding after 30 mins; assay type: functional, cell membranes
[2] = target: Sphingosine 1-phosphate receptor 3 (Homo sapiens, UniProt Q99500); experiment: Agonist activity at human S1P3R expressed in RBL membranes assessed as [35S]GTPgammaS binding after 30 mins; assay type: functional, cell membranes
Mus musculus = experiment: Volume of distribution at steady state in po dosed C57BL/6 mouse at 1 mg/kg, iv using DMSO/1% methylcellulose 1:99 (w/v); assay type: ADME, organism-based; set-up: dose 1 mg/kg, route oral; details: in vivo
[3] = Half life in po dosed C57BL/6 mouse at 1 mg/kg, iv using DMSO/1% methylcellulose 1:99 (w/v); assay type: ADME, organism-based; set-up: dose 1 mg/kg, route oral; details: in vivo
[4] = Oral bioavailability in C57BL/6 mouse at 3 mg/kg using DMSO/1% methylcellulose 1:99 (w/v); assay type: ADME, organism-based; details: in vivo
[5] = Oral bioavailability in C57BL/6 mouse at 3 mg/kg using 1% methylcellulose (w/v); assay type: ADME, organism-based; details: in vivo
Rattus norvegicus [6] = experiment: Reduction of lymphocyte count in rat at 1 mg/kg, po measured at 4 hrs relative to control; assay type: functional; set-up: scale not given: the % may be the effect or the level left
Rattus norvegicus [7] = experiment: Reduction of lymphocyte count in rat at 1 mg/kg, po measured at 8 hrs relative to control; assay type: functional; set-up: scale not given: the % may be the effect or the level left
Rattus norvegicus [8] = experiment: Reduction of lymphocyte count in rat at 1 mg/kg, po measured at 24 hrs relative to control; assay type: functional; set-up: scale not given: the % may be the effect or the level left
Albumin = Albumin (Homo sapiens, UniProt P02768); experiment: Fraction unbound as a percentage in human serum albumin; assay type: ADME
[9] = Solubility in fed-state simulated intestinal fluid at pH 5 after 24 hrs; assay type: ADME
[10] = Solubility in fed-state simulated intestinal fluid at pH 6.5 after 24 hrs; assay type: ADME
Cytochrome P450 1A2 = target: T1, Cytochrome P450 1A2 (Homo sapiens, UniProt P05177); experiment: Inhibition of CYP1A2 (unknown origin); assay type: ADME
T1 sequence (P05177 whole entry): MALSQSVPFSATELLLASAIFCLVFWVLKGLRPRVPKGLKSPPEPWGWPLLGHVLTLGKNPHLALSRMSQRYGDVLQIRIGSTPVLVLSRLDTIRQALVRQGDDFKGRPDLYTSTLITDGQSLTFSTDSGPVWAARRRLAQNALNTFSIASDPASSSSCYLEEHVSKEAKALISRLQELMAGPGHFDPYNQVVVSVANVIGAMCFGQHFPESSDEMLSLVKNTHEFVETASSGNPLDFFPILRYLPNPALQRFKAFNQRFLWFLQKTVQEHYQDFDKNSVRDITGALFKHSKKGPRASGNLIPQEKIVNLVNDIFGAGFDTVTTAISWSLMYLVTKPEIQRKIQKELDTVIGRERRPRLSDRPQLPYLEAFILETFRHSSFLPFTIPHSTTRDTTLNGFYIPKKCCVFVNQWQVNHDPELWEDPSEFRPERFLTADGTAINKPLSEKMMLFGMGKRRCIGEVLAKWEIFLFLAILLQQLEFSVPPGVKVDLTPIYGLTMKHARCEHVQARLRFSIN

Cytochrome P450 2C9 = Cytochrome P450 2C9 (Homo sapiens, UniProt P11712); experiment: Inhibition of CYP2C9 (unknown origin); assay type: ADME
Cytochrome P450 2C19 = Cytochrome P450 2C19 (Homo sapiens, UniProt P33261); experiment: Inhibition of CYP2C19 (unknown origin); assay type: ADME
Cytochrome P450 2D6 = Cytochrome P450 2D6 (Homo sapiens, UniProt P10635); experiment: Inhibition of CYP2D6 (unknown origin); assay type: ADME
[11] = Inhibition of CYP3A4VG (unknown origin); assay type: ADME, Homo sapiens
[12] = Inhibition of CYP3A4VR (unknown origin); assay type: ADME, Homo sapiens
[13] = Permeability in MDCK cells; assay type: ADME, cell-based, Canis lupus familiaris; details: dog, read-out: permeability
[14] = Fraction unbound in rat blood; assay type: ADME, tissue-based
[15] = Fraction unbound in dog blood; assay type: ADME, tissue-based, Canis lupus familiaris
[16] = Fraction unbound in human blood; assay type: ADME, tissue-based
Hepatocyte = experiment: Intrinsic clearance in rat hepatocyte; assay type: ADME, cell-based; details: hepatocytes
[17] = Intrinsic clearance in dog hepatocyte; assay type: ADME, cell-based, Canis lupus familiaris; details: hepatocytes
Rattus norvegicus [18] = experiment: Reduction in lymphocyte level in po dosed male Lewis rat; assay type: functional, organism-based; details: Rattus norvegicus, Lewis
[19] = Fraction unbound in cynomolgus monkey blood; assay type: ADME, tissue-based, Macaca fascicularis
[20] = Intrinsic clearance in cynomolgus monkey hepatocyte; assay type: ADME, cell-based, Macaca fascicularis; details: hepatocytes, read-out: CLH
[21] = Clearance in CD rat at 1 mg/kg, iv or 3 mg/kg, po using DMSO/10%(w/v) Kleptose, 0.9% saline(aq) (2%/98%); assay type: ADME, organism-based; details: in vivo
[22] = Volume of distribution at steady state in CD rat at 1 mg/kg, iv or 3 mg/kg, po using DMSO/10%(w/v) Kleptose, 0.9% saline(aq) (2%/98%); assay type: ADME, organism-based; details: in vivo, read-out: Vdss
[23] = Half life in CD rat at 1 mg/kg, iv or 3 mg/kg, po using DMSO/10%(w/v) Kleptose, 0.9% saline(aq) (2%/98%); assay type: ADME, organism-based; details: in vivo
[24] = Oral bioavailability in CD rat at 3 mg/kg using Methylcellulose(aq), 1% (w/v) suspension; assay type: ADME, organism-based; details: CD, in vivo
[25] = Clearance in Beagle dog at 1 mg/kg, iv or 2 mg/kg, po using DMSO/10%(w/v) Kleptose, 0.9% saline(aq) (2%/98%); assay type: ADME, organism-based, Canis lupus familiaris; details: in vivo
[26] = Volume of distribution at steady state in Beagle dog at 1 mg/kg, iv or 2 mg/kg, po using DMSO/10%(w/v) Kleptose, 0.9% saline(aq) (2%/98%); assay type: ADME, organism-based, Canis lupus familiaris; details: beagle, in vivo, read-out: Vdss
[27] = Half life in Beagle dog at 1 mg/kg, iv or 2 mg/kg, po using DMSO/10%(w/v) Kleptose, 0.9% saline(aq) (2%/98%); assay type: ADME, organism-based, Canis lupus familiaris; details: beagle, in vivo
[28] = Oral bioavailability in Beagle dog at 2 mg/kg using Methylcellulose(aq), 1% (w/v) suspension; assay type: ADME, organism-based, Canis lupus familiaris; details: beagle, in vivo
[29] = Clearance in cynomolgus monkey at 1 mg/kg, iv or 3 mg/kg, po using DMSO/10%(w/v) Kleptose, 0.9% saline(aq) (2%/98%); assay type: ADME, organism-based, Macaca fascicularis; details: in vivo
[30] = Volume of distribution at steady state in cynomolgus monkey at 1 mg/kg, iv or 3 mg/kg, po using DMSO/10%(w/v) Kleptose, 0.9% saline(aq) (2%/98%); assay type: ADME, organism-based, Macaca fascicularis; details: in vivo, read-out: Vdss
[31] = Half life in cynomolgus monkey at 1 mg/kg, iv or 3 mg/kg, po using DMSO/10%(w/v) Kleptose, 0.9% saline(aq) (2%/98%); assay type: ADME, organism-based, Macaca fascicularis; details: in vivo
[32] = Oral bioavailability in cynomolgus monkey at 3 mg/kg using Methylcellulose(aq), 1% (w/v) suspension; assay type: ADME, organism-based, Macaca fascicularis; details: in vivo

Chain of Sphingosine 1-phosphate receptor 3 (Q99500 whole entry): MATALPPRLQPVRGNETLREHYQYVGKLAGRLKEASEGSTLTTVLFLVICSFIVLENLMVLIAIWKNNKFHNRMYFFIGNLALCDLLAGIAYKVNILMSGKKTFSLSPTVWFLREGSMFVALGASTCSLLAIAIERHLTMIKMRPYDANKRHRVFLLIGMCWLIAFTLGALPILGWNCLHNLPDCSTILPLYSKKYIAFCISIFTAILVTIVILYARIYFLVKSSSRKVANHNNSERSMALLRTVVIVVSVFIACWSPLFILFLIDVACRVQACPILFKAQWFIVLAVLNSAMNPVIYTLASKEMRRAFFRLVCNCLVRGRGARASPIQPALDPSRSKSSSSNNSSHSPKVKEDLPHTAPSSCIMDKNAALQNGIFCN
Chain of Sphingosine 1-phosphate receptor 1 (P21453 whole entry): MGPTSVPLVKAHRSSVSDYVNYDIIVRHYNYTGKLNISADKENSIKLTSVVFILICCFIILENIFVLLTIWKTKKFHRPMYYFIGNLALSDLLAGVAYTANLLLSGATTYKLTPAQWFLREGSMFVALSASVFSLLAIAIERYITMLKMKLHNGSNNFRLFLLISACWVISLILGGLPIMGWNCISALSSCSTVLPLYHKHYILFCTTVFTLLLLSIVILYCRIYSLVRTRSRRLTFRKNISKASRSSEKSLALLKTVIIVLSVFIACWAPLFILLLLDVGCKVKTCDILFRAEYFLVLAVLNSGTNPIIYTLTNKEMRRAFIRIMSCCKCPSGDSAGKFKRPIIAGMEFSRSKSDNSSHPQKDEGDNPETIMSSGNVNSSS
Chain of Cytochrome P450 2C9 (P11712 whole entry): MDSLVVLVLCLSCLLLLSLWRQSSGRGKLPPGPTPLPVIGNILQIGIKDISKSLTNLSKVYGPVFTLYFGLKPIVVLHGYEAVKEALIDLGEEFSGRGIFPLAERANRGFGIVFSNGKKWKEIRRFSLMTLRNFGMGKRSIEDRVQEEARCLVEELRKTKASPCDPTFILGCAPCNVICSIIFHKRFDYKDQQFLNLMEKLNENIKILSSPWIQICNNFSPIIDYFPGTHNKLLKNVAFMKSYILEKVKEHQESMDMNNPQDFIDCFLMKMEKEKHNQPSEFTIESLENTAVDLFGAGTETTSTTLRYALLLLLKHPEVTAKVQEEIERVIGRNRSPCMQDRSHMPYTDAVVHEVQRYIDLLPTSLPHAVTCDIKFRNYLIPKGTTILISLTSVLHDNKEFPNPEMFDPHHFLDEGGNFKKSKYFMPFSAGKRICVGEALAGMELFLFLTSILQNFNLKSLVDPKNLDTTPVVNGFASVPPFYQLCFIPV
Chain of Cytochrome P450 2C19 (P33261 whole entry): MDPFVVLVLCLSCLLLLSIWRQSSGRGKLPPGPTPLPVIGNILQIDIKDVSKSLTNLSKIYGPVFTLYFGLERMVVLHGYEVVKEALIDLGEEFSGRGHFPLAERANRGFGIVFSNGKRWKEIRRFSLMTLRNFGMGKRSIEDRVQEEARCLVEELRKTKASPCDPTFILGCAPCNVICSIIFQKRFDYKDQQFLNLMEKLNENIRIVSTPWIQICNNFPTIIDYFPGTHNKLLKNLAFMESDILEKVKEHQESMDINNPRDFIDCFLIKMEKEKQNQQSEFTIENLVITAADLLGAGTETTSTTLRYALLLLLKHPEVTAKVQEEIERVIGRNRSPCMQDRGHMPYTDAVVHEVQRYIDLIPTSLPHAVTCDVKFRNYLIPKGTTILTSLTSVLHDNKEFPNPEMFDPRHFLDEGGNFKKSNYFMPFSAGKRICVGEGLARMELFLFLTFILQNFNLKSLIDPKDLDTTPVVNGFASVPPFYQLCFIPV
Chain of Albumin (P02768 whole entry): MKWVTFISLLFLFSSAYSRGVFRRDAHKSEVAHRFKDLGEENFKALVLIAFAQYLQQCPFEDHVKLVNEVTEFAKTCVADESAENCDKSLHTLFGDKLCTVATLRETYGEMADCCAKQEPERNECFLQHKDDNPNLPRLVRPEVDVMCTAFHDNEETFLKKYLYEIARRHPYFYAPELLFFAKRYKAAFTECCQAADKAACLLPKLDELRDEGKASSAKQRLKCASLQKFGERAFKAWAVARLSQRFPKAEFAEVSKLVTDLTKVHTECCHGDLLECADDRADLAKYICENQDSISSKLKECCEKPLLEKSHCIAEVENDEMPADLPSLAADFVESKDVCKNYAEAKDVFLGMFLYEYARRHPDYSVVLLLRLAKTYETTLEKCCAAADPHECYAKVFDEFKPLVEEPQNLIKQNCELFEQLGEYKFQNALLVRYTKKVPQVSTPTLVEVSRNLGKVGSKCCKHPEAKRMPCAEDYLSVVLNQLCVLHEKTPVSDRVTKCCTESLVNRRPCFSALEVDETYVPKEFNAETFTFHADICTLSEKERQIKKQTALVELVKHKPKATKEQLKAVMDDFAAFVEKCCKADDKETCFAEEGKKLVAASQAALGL
Chain of Cytochrome P450 2D6 (P10635 whole entry): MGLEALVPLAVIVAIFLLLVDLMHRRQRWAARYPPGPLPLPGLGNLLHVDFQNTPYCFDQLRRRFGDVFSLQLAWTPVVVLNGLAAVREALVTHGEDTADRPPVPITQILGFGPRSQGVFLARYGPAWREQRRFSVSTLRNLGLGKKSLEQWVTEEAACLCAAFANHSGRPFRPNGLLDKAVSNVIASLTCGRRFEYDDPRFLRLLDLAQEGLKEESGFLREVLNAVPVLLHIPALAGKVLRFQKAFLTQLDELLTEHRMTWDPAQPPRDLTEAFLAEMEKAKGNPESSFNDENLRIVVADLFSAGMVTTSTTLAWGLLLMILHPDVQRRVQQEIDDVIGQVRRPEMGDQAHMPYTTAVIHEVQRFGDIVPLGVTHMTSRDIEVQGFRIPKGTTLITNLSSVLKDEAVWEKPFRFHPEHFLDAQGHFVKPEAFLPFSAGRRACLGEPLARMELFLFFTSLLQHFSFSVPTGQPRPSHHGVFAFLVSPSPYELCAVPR

- EC50 [1]: 0.158 µM
- EC50 [2]: > 31.6 µM
- Vdss (Mus musculus): 7.6 L/kg
- half-life [3]: 9.5 h
- bioavailability [4]: 59%
SMILES: CC(C)Oc1ccc(-c2nc(-c3ccc4c(c3)CCNCC4)no2)cc1Cl

- EC50 [1]: 0.0251 µM
- EC50 [2]: > 31.6 µM
- Vdss (Mus musculus): 9.1 L/kg
- half-life [3]: 6.9 h
- bioavailability [5]: 63%
SMILES: CC(C)Oc1ccc(-c2nc(-c3ccc4c(c3)CCNCC4)no2)cc1C#N
- Activity (Rattus norvegicus [6]): 75%
- Activity (Rattus norvegicus [7]): 82%
- Activity (Rattus norvegicus [8]): 6%

- EC50 [1]: 0.02 µM
- EC50 [2]: > 31.6 µM
- fraction unbound (Albumin): 0.012
- solubility at 24 h [9]: 44 µg/mL
- solubility at 24 h [10]: 11 µg/mL
- IC50 (Cytochrome P450 1A2): > 50 µM
- IC50 (Cytochrome P450 2C9): 7 µM
- IC50 (Cytochrome P450 2C19): > 50 µM
- IC50 (Cytochrome P450 2D6): > 50 µM
- IC50 [11]: 28 µM
- IC50 [12]: 25 µM
- Papp [13]: 20.3 ×10⁻⁶ cm/s
- fraction unbound [14]: 0.0017
- fraction unbound [15]: 0.002
- fraction unbound [16]: 0.001
- CLH (Hepatocyte): < 0.9 mL/min/g
- CLH [17]: < 1.7 mL/min/g
- IC50 (Rattus norvegicus [18]): 0.117 µM
- fraction unbound [19]: 0.0018
- CLint scaled [20]: < 0.9 mL/min/kg
- clearance [21]: 2 mL/min/kg
- Vd [22]: 1 L/kg
- half-life [23]: 7.5 h
- bioavailability [24]: 96%
- clearance [25]: 4 mL/min/kg
- Vd [26]: 1 L/kg
- half-life [27]: 3.9 h
- bioavailability [28]: 94%
- clearance [29]: 3 mL/min/kg
- Vd [30]: 0.4 L/kg
- half-life [31]: 1.2 h
- bioavailability [32]: 59%
SMILES: CC(C)Oc1ccc(-c2nc(-c3cccc4c3cnn4CCC(=O)[O-])no2)cc1Cl.[Na+]
